Data taken from patent publication US7582645B2, “Pyrimidine derivatives for treatment of hyperproliferative disorders” (Bayer Pharmaceuticals Corporation, priority 2003, dated 2009).

System: HCT116 cells
Experiment: HCT116 cytotoxic activity assay (Alamar Blue, 72 h)
Assay type: cell-based
Settings: Homo sapiens, HCT-116, 72 h compound exposure, greater than 500 nM but less than or equal to 2 μM
Experimental: Representative compounds of this invention were tested for cytotoxicity using the above-described assay procedure with the following results: […]

| SMILES | IC50 [nM] |
| --- | --- |
| N#Cc1cc(Oc2ccc(Nc3cc(-c4cccc(O)c4)nc(N)n3)cc2)ccn1 [Example 226] | 500 to 2000 |
| COc1ccc(-c2cc(Nc3ccc(Oc4ccnc(C(N)=O)c4)cc3)nc(N)n2)cn1 [Example 230, 4-(4-{[2-amino-6-(6-methoxypyridin-3-yl)pyrimidin-4-yl]amino}phenoxy) pyridine-2-carboxamide] | 500 to 2000 |
| CSc1ccc(-c2cc(Nc3ccc(Oc4ccnc(C#N)c4)cc3)nc(N)n2)cc1 [Example 231, 4-[4-({2-amino-6-[4-(methylthio)phenyl]pyrimidin-4-yl}amino)phenoxy]pyridine-2-carbonitrile] | 500 to 2000 |
| CN(C)c1ccc(-c2cc(Nc3ccc(Oc4ccnc(C#N)c4)cc3)nc(N)n2)cc1 [Example 232, 4-[4-({2-amino-6-[4-(dimethylamino)phenyl]pyrimidin-4-yl}amino)phenoxy]pyridine-2-carbonitrile] | 500 to 2000 |
| N#CCc1ccc(-c2cc(Nc3ccc(Oc4ccnc(C#N)c4)cc3)nc(N)n2)cc1 [Example 235, 4-[4-({2-amino-6-(4-(cyanomethyl)phenyl]pyrimidin-4-yl}amino)phenoxy]pyridine-2-carbonitrile] | 500 to 2000 |
| N#Cc1cc(Oc2ccc(Nc3cc(-c4cccs4)nc(N)n3)cc2)ccn1 [Example 239, 4-(4-{[2-amino-6-(2-thienyl)pyrimidin-4-yl]amino}phenoxy) pyridine-2-carbonitrile] | 500 to 2000 |
| N#Cc1cc(Oc2ccc(Nc3cc(-c4ccc(Cl)cc4)nc(N)n3)cc2)ccn1 [Example 242, 4-(4-{[2-amino-6-(4-chlorophenyl)pyrimidin-4-yl]amino}phenoxy) pyridine-2-carbonitrile] | 500 to 2000 |
| N#Cc1cc(Oc2ccc(Nc3cc(-c4ccccc4N)nc(N)n3)cc2)ccn1 [Example 243, 4-(4-{[2-amino-6-(2-aminophenyl)pyrimidin-4-yl]amino}phenoxy) pyridine-2-carbonitrile] | 500 to 2000 |
| COc1ccc(C(C)C)cc1-c1cc(Nc2ccc(Oc3ccnc(C#N)c3)cc2)nc(N)n1 [Example 245, 4-(4-{[2-amino-6-(5-isopropyl-2-methoxyphenyl)pyrimidin-4-yl]amino}phenoxy)pyridine-2-carbonitrile] | 500 to 2000 |
| N#Cc1cc(Oc2ccc(Nc3cc(-c4ccc(F)cc4F)nc(N)n3)cc2)ccn1 [Example 247, 4-(4-{[2-amino-6-(2,4-difluorophenyl)pyrimidin-4-yl]amino}phenoxy)pyridine-2-carbonitrile] | 500 to 2000 |
| N#Cc1cc(Oc2ccc(Nc3cc(-c4cccc(CO)c4)nc(N)n3)cc2)ccn1 [Example 248, 4-[4-({2-amino-6-[3-(hydroxymethyl)phenyl]pyrimidin-4-yl}amino)phenoxy]pyridine-2-carbonitrile] | 500 to 2000 |
| NC(=O)c1cc(Oc2ccc(Nc3cc(-c4cccc(F)c4)nc(N)n3)cc2)ccn1 [Example 256, 4-(4-{[2-amino-6-(3-fluorophenyl)pyrimidin-4-yl]amino}phenoxy) pyridine-2-carboxamide] | 500 to 2000 |
| NC(=O)c1cc(Oc2ccc(Nc3cc(-c4ccc(Cl)cc4)nc(N)n3)cc2)ccn1 [Example 257, 4-(4-{[2-amino-6-(4-chlorophenyl)pyrimidin-4-yl]amino}phenoxy) pyridine-2-carboxamide] | 500 to 2000 |
| NC(=O)c1cc(Oc2ccc(Nc3cc(-c4cccc(C(F)(F)F)c4)nc(N)n3)cc2)ccn1 [Example 258, 4-[4-({2-amino-6-[3-(trifluoromethyl)phenyl]pyrimidin-4-yl}amino)phenoxy]pyridine-2-carboxamide] | 500 to 2000 |

Same assay, conditions: Homo sapiens, HCT-116, 72 h compound exposure, greater than 2 μM

| SMILES | IC50 [nM] |
| --- | --- |
| COc1ccc(-c2cc(Nc3ccc(Oc4ccnc(C#N)c4)cc3)nc(N)n2)cc1OC [Example 224, 4-(4-{[2-amino-6-(3,4-dimethoxyphenyl)pyrimidin-4-yl]amino}phenoxy)pyridine-2-carbonitrile] | > 2000 |
| COc1ccc(-c2cc(Nc3ccc(Oc4ccnc(C#N)c4)cc3)nc(N)n2)cc1 [Example 225, 4-(4-{[2-amino-6-(4-methoxyphenyl)pyrimidin-4-yl]amino}phenoxy) pyridine-2-carbonitrile 4-(4-{[6-amino-2-(4-methoxyphenyl)pyrimidin-4-yl]amino}phenoxy) pyridine-2-carbonitrile] | > 2000 |
| N#Cc1cc(Oc2ccc(Nc3cc(-c4cccnc4)nc(N)n3)cc2)ccn1 [Example 236, 4-{4-[(2-amino-6-pyridin-3-ylpyrimidin-4-yl)amino]phenoxy} pyridine-2-carbonitrile] | > 2000 |
| COc1ncc(-c2cc(Nc3ccc(Oc4ccnc(C#N)c4)cc3)nc(N)n2)c(OC)n1 [Example 237, 4-{4-[(2-amino-2′,4′-dimethoxy-4,5′-bipyrimidin-6-yl)amino]phenoxy} pyridine-2-carbonitrile] | > 2000 |
| N#Cc1cc(Oc2ccc(Nc3cc(-c4cccc(C(F)(F)F)c4)nc(N)n3)cc2)ccn1 [Example 244, 4-[4-({2-amino-6-[3-(trifluoromethyl)phenyl]pyrimidin-4-yl}amino)phenoxy]pyridine-2-carbonitrile] | > 2000 |
| N#Cc1cc(Oc2ccc(Nc3cc(-c4ccc(Cl)c(Cl)c4)nc(N)n3)cc2)ccn1 [Example 253, 4-(4-{[2-amino-6-(3,4-dichlorophenyl)pyrimidin-4-yl]amino}phenoxy)pyridine-2-carbonitrile] | > 2000 |
| NC(=O)c1cc(Oc2ccc(Nc3cc(-c4cccs4)nc(N)n3)cc2)ccn1 [Example 255, 4-(4-{[2-amino-6-(2-thienyl)pyrimidin-4-yl]amino}phenoxy) pyridine-2-carboxamide] | > 2000 |

Same assay, conditions: Homo sapiens, HCT-116, 72 h compound exposure, less than or equal to 500 nM

| SMILES | IC50 [nM] |
| --- | --- |
| COc1ccc(-c2cc(Nc3ccc(Oc4ccnc(C#N)c4)cc3)nc(N)n2)cn1 [Example 223, 4-(4-{[2-amino-6-(6-methoxypyridin-3-yl)pyrimidin-4-yl]amino}phenoxy) pyridine-2-carbonitrile] | ≤ 500 |
| N#Cc1cc(Oc2ccc(Nc3cc(-c4ccc(O)cc4)nc(N)n3)cc2)ccn1 [Example 227, 4-(4-{[2-amino-6-(4-hydroxyphenyl)pyrimidin-4-yl]amino}phenoxy) pyridine-2-carbonitrile 4-(4-{[6-amino-2-(4-hydroxyphenyl)pyrimidin-4-yl]amino}phenoxy) pyridine-2-carbonitrile] | ≤ 500 |
| N#Cc1cc(Oc2ccc(Nc3cc(-c4ccoc4)nc(N)n3)cc2)ccn1 [Example 228, 4-(4-{[2-amino-6-(3-furyl)pyrimidin-4-yl]amino}phenoxy)pyridine-2-carbonitrile 4-(4-{[6-amino-2-(3-furyl)pyrimidin-4-yl]amino}phenoxy) pyridine-2-carbonitrile] | ≤ 500 |
| N#Cc1cc(Oc2ccc(Nc3cc(-c4ccc(N)cc4)nc(N)n3)cc2)ccn1 [Example 229, 4-(4-{[2-amino-6-(4-aminophenyl)pyrimidin-4-yl]amino}phenoxy) pyridine-2-carbonitrile 4-(4-{[6-amino-2-(4-aminophenyl)pyrimidin-4-yl]amino}phenoxy)pyridine-2-carbonitrile] | ≤ 500 |
| COc1ccc(OC)c(-c2cc(Nc3ccc(Oc4ccnc(C#N)c4)cc3)nc(N)n2)c1 [Example 233, 4-(4-{[2-amino-6-(2,5-dimethoxyphenyl)pyrimidin-4-yl]amino}phenoxy)pyridine-2-carbonitrile] | ≤ 500 |
| COc1cccc(-c2cc(Nc3ccc(Oc4ccnc(C#N)c4)cc3)nc(N)n2)c1 [Example 234, 4-(4-{[2-amino-6-(3-methoxyphenyl)pyrimidin-4-yl]amino}phenoxy) pyridine-2-carbonitrile] | ≤ 500 |
| N#Cc1cc(Oc2ccc(Nc3cc(-c4cccc(N)c4)nc(N)n3)cc2)ccn1 [Example 238, 4-(4-{[2-amino-6-(3-aminophenyl)pyrimidin-4-yl]amino}phenoxy) pyridine-2-carbonitrile] | ≤ 500 |
| N#Cc1cc(Oc2ccc(Nc3cc(-c4cccc(F)c4)nc(N)n3)cc2)ccn1 [Example 240, 4-(4-{[2-amino-6-(3-fluorophenyl)pyrimidin-4-yl]amino}phenoxy) pyridine-2-carbonitrile] | ≤ 500 |
| N#Cc1cc(Oc2ccc(Nc3cc(-c4ccccc4F)nc(N)n3)cc2)ccn1 [Example 241, 4-(4-{[2-amino-6-(2-fluorophenyl)pyrimidin-4-yl]amino}phenoxy) pyridine-2-carbonitrile] | ≤ 500 |
| Cc1ccccc1-c1cc(Nc2ccc(Oc3ccnc(C#N)c3)cc2)nc(N)n1 [Example 246, 4-(4-{[2-amino-6-(2-methylphenyl)pyrimidin-4-yl]amino}phenoxy) pyridine-2-carbonitrile] | ≤ 500 |
| Cc1ccc(-c2cc(Nc3ccc(Oc4ccnc(C#N)c4)cc3)nc(N)n2)cc1 [Example 249, 4-(4-{[2-amino-6-(4-methylphenyl)pyrimidin-4-yl]amino}phenoxy) pyridine-2-carbonitrile] | ≤ 500 |
| Cc1cccc(-c2cc(Nc3ccc(Oc4ccnc(C#N)c4)cc3)nc(N)n2)c1 [Example 250, 4-(4-{[2-amino-6-(3-methylphenyl)pyrimidin-4-yl]amino}phenoxy) pyridine-2-carbonitrile] | ≤ 500 |
| N#Cc1cc(Oc2ccc(Nc3cc(-c4ccsc4)nc(N)n3)cc2)ccn1 [Example 251, 4-(4-{[2-amino-6-(3-thienyl)pyrimidin-4-yl]amino}phenoxy) pyridine-2-carbonitrile] | ≤ 500 |
| Cc1ccc(-c2cc(Nc3ccc(Oc4ccnc(C#N)c4)cc3)nc(N)n2)cc1N [Example 252, 4-(4-{[2-amino-6-(3-amino-4-methylphenyl)pyrimidin-4-yl]amino}phenoxy)pyridine-2-carbonitrile] | ≤ 500 |
| NC(=O)c1cc(Oc2ccc(Nc3cc(-c4cccc(N)c4)nc(N)n3)cc2)ccn1 [Example 254, 4-(4-{[2-amino-6-(3-aminophenyl)pyrimidin-4-yl]amino}phenoxy) pyridine-2-carboxamide] | ≤ 500 |
| CCCCc1ccc(-c2cc(Nc3ccc(Oc4ccnc(C(N)=O)c4)cc3)nc(N)n2)cc1 [Example 259, 4-(4-{[2-amino-6-(4-butylphenyl)pyrimidin-4-yl]amino}phenoxy) pyridine-2-carboxamide] | ≤ 500 |
